# From article PMC5485989, “Role of Free Radicals and Biotransformation in Trichloronitrobenzene-Induced Nephrotoxicity In Vitro” (International Journal of Molecular Sciences, 2017)
# Marks after values point to notes of the source that are not given here.
# What was measured:
# renal cortical slices = conditions: cited from earlier work
# [1] = test system: isolated renal cortical cells (IRCC); assay: Time and concentration cytotoxicity study, LDH release in IRCC; assay type: cell-based, male Fischer 344 rats; conditions: for Cytotoxicity (LDH release), time and concentration response: 0.5 or 1.0 mM, 15-120 min, significant difference from DMSO control, p < 0.05
# Description: To determine the comparative nephrotoxic potential of the four TCNBs in IRCC, a time and concentration response study was performed starting at 15 min and 0.5 or 1.0 mM and adjusting the times tested based on the results (Figure 2).
# [2] = test system: isolated renal cortical cells (IRCC); assay: Effect of antioxidant or biotransformation inhibitor pretreatment on TCNB cytotoxicity, LDH release in IRCC; conditions: for Effect of pretreatment on 3,4,5-TCNB cytotoxicity: 0.5 mM 3,4,5-TCNB, 30 min exposure; for Effect of pretreatment on 3,4,5-TCNB cytotoxicity / Effect of pretreatment on 2,3,4-TCNB cytotoxicity / Effect of pretreatment on 2,4,5-TCNB cytotoxicity / Effect of pretreatment on 2,4,6-TCNB cytotoxicity: IRCC; for Effect of pretreatment on 2,3,4-TCNB cytotoxicity: 1.0 mM 2,3,4-TCNB, 60 min exposure; for % of lactate dehydrogenase release, PreTx: pretreatment compound alone, no TCNB; for % of lactate dehydrogenase release, PreTx / % of lactate dehydrogenase release, PreTx + TCNB: mean ± S.E., n = 4; for Effect of pretreatment on 2,4,5-TCNB cytotoxicity: 1.0 mM 2,4,5-TCNB; for Effect of pretreatment on 2,4,5-TCNB cytotoxicity / Effect of pretreatment on 2,4,6-TCNB cytotoxicity: 90 min exposure; for Effect of pretreatment on 2,4,6-TCNB cytotoxicity: 1.0 mM 2,4,6-TCNB
# Description: Untreated rats were anesthetized with pentobarbital (75 mg/kg, i.p.) and isolated renal cortical cells (IRCC) were obtained by using the collagenase perfusion method. Initial cell viability was determined by measuring trypan blue (2% w/v) exclusion and lactate dehydrogenase (LDH) release. […] IRCC were then exposed to various concentrations of a TCNB (0, 0.5, or 1.0 mM) for 15, 30, 60, 90, or 120 min. Following the incubation period, flasks were removed and placed on ice. Samples (0.5 mL) were taken for LDH release assays. Briefly, the samples were centrifuged (3000× g, 3 min), the was supernatant decanted and saved, and the pellet was disrupted with 1 mL of 10% Triton X-100 solution to release cellular LDH activity. LDH activity was then determined in each fraction (supernatant and pellet) as previously described using a kinetic assay based on the amount of NADH produced from NAD [57]. The LDH released was expressed as % of total (supernatant plus pellet).
# Concentrations used in these experiments were 0.5 mM (3,4,5-TCNB) or 1.0 mM (2,3,4-, 2,4,5- and 2,4,6-TCNB). Incubation times with a TCNB added were 30 min (3,4,5-TCNB), 60 min (2,3,4-TCNB), or 90 min (2,4,5- and 2,4,6-TCNB). The pretreatment times and concentrations for all of the pretreatments are shown below in Table 5.
# [3] = Table 1 experiments, 60 min incubation
# [4] = Table 2 experiments, 90 min incubation
# [5] = pretreatment compound followed by 1.0 mM 2,3,4-TCNB, 60 min
# [6] = pretreatment compound followed by 1.0 mM 2,4,5-TCNB, 90 min
# [7] = pretreatment compound followed by 1.0 mM 2,4,6-TCNB, 90 min
# [8] = Table 3 experiments, 90 min incubation
Compound,Lowest concentration reducing pyruvate-stimulated gluconeogenesis and increasing LDH release (renal cortical slices) [mM],"Cytotoxicity (LDH release), time and concentration response [1]","Effect of pretreatment on 3,4,5-TCNB cytotoxicity [2]","Effect of pretreatment on 2,3,4-TCNB cytotoxicity [2]","% of lactate dehydrogenase release, PreTx [2, 3]","% of lactate dehydrogenase release, PreTx [2, 4]","% of lactate dehydrogenase release, PreTx + TCNB [2, 5]","% of lactate dehydrogenase release, PreTx + TCNB [2, 6]","% of lactate dehydrogenase release, PreTx + TCNB [2, 7]","Effect of pretreatment on 2,4,5-TCNB cytotoxicity [2]","Effect of pretreatment on 2,4,6-TCNB cytotoxicity [2]","% of lactate dehydrogenase release, PreTx [2, 8]",Concentration at which cytotoxicity was evident ([1]; as early as 30 min) [µM]
"O=[N+]([O-])c1ccc(Cl)c(Cl)c1 [3,4-DCNB, 3,4-dichloronitrobenzene]",0.5,,,,,,,,,,,,
"O=[N+]([O-])c1cc(Cl)c(Cl)cc1Cl [2,4,5-TCNB]",,"induced cytotoxicity at 90 min (0.5 mM) and 120 min (0.5 and 1.0 mM), but not at 60 min with either concentration",,,,,,,,,,,
NNC(=O)c1ccncc1 [Isoniazid],,,at least some attenuation,reduced,11 ± 1%,10 ± 1%,"19 ± 1 ^c,d %","34 ± 1 ^c,d %",28 ± 2 ^c %,,,,
"Cc1c(C)c2c(c(C)c1O)CC[C@@](C)(CCC[C@H](C)CCC[C@H](C)CCCC(C)C)O2 [α–Tocopherol, α-Tocopherol]",,,"attenuation of 3,4,5-TCNB cytotoxicity","attenuation of 2,3,4-TCNB cytotoxicity",11± 1%,13 ± 1%,12 ± 2 ^d %,14 ± 3 ^d %,25 ± 2 ^c %,"attenuation of 2,4,5-TCNB cytotoxicity",not reduced,14 ± 1%,
N[C@@H](CCC(=O)N[C@@H](CS)C(=O)NCC(=O)O)C(=O)O [Glutathione],,,"attenuation of 3,4,5-TCNB cytotoxicity","attenuation of 2,3,4-TCNB cytotoxicity",13 ± 1%,15 ± 1%,14 ± 1 ^d %,17 ± 2 ^d %,"20 ± 1 ^c,d %","attenuation of 2,4,5-TCNB cytotoxicity","attenuation of 2,4,6-TCNB cytotoxicity",,
"CCCCCCCCN [n-Octylamine, N-Octylamine]",,,reduced,reduced,16 ± 1 ^c %,11 ± 2%,"19 ± 1 ^c,d %",32 ± 2 ^c %,29 ± 3 ^c %,,,11 ± 1%,
CC(C)(C(=O)c1cccnc1)c1cccnc1 [Metyrapone],,,reduced,,12 ± 1%,16 ± 1 ^c %,17 ± 1 ^c %,28 ± 2 ^c %,27 ± 2 ^c %,,reduced,15 ± 1%,
"O=[N+]([O-])c1c(Cl)cc(Cl)cc1Cl [2,4,6-TCNB]",,cytotoxicity was observed at 30 and 60 min (0.5 and 1.0 mM) but not at 15 min with either concentration,,,,,,,,,,,500
O=C(O)CC(S)C(=O)O (stereo not drawn) [Mercaptosuccinate],,,reduced,reduced,10 ± 1%,17 ± 1 ^c %,10 ± 1 ^d %,24 ± 1 ^c %,31 ± 1 ^c %,,,16 ± 1%,
Cn1cc[nH]c1=S [Methimazole],,,reduced,reduced,9 ± 1%,14 ± 2%,11 ± 1 ^d %,23 ± 2 ^c %,31 ± 2 ^c %,,reduced,17 ± 1%,
"Nc1ccc(S(=O)(=O)Nc2ccnn2-c2ccccc2)cc1 [sulfaphenazole, Sulfaphenazole]",,,at least some attenuation,,,,,,,,,,
"CCCCOCCOCCOCc1cc2c(cc1CCC)OCO2 [PiBx, Piperonyl butoxide]",,,reduced,reduced,10 ± 1%,11 ± 2%,"12 ± 1 ^c,d %",24 ± 3 ^c %,22 ± 1 ^c %,,,13 ± 1%,
COc1ccc2c(c1)c(CC(=O)O)c(C)n2C(=O)c1ccc(Cl)cc1 [Indomethacin],,,reduced,reduced,13 ± 1%,16 ± 2%,"16 ± 2 ^c,d %",21 ± 2 ^c %,"21 ± 1 ^c,d %",,reduced,16 ± 1 ^c %,
"S=P(N1CC1)(N1CC1)N1CC1 [thio-tepa, Thio-tepa]",,,at least some attenuation,,,,,,,,,,
O=C1O[C@H]([C@@H](O)CO)C(O)=C1O [Ascorbate],,,"attenuation of 3,4,5-TCNB cytotoxicity","attenuation of 2,3,4-TCNB cytotoxicity",12 ± 1%,12 ± 1%,14 ± 1 ^d %,16 ± 2 ^d %,"17 ± 2 ^c,d %","attenuation of 2,4,5-TCNB cytotoxicity","attenuation of 2,4,6-TCNB cytotoxicity",,
"CCN(CC)C(=S)S [diethyldithiocarbamate, Diethyldithiocarbamate]",,,at least some attenuation,,,,,,,,,,
"CC(=O)N[C@@H](CS)C(=O)O [NAC, N-acetyl-L-cysteine]",,,"attenuation of 3,4,5-TCNB cytotoxicity","attenuation of 2,3,4-TCNB cytotoxicity",13± 1%,15 ± 1%,"16 ± 1 ^c,d %",17 ± 1 ^d %,23 ± 2 ^c %,"attenuation of 2,4,5-TCNB cytotoxicity",not reduced,13 ± 1%,
